Reference: patent US20240368120A1 (Terns Pharmaceuticals, Inc., priority 2023, published 2024)

Molecular target: T1, human GLP-1R receptor (Homo sapiens, UniProt P43220)
T1 construct: expressed in transfected cells
Test: GLP-1R low expression cell assay (cAMP TR-FRET, CHO-K1_hGLP-1Rlow_clone10 cells)
Format: cell-based
Settings: for EC50: cAMP TR-FRET, 30 min at 25° C.
Method in brief: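 Readout is cAMP TR-FRET after 30 min compound stimulation at 25 °C of a low-GLP-1R-expressing CHO-K1 clone (1,000 cells/well), with 10-point 3-fold serial dilutions. Percent activation versus a control GLP-1 peptide, from duplicates, was Hill-fitted to give EC50.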

[1] = maximum activation relative to control GLP-1 peptide agonist

T1 sequence (P43220 24-463): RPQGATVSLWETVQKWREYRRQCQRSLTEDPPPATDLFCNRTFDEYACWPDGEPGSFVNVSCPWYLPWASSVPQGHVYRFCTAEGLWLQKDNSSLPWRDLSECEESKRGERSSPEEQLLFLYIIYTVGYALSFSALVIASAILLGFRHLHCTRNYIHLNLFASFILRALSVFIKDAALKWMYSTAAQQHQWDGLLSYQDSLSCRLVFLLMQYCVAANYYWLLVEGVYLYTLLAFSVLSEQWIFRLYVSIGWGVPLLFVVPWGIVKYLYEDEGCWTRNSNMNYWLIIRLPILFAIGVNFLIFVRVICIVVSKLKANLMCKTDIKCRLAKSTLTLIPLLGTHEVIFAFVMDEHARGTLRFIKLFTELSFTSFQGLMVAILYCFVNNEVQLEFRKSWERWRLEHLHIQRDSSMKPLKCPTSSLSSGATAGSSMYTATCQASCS

Row | SMILES | EC50 | Emax [1] | GLP-1R Low Expression Cell Assay Emax (%) [1]
1 | N#Cc1ccc(COc2cccc(C3CCN(Cc4nc5c(N)nc(C(=O)O)cc5n4C[C@@H]4CCO4)CC3)n2)c(F)c1 [Compound 134, (S)-4-amino-2-((4-(6-((4-cyano-2-fluorobenzyl)oxy)pyridin-2-yl)piperidin-1-yl)methyl)-1-(oxetan-2-ylmethyl)-1H-imidazo[4,5-c]pyridine-6-carboxylic acid] | 10 to 100 nM | > 85% | 
2 | COc1cc(C(=O)O)cc2c1nc(CN1CCC(c3cccc4c3O[C@H](c3ccc(C#N)cc3F)CO4)CC1)n2Cc1cncs1 [Compound 91, (R)-2-((4-(3-(4-cyano-2-fluorophenyl)-2,3-dihydrobenzo[b][1,4]dioxin-5-yl)piperidin-1-yl)methyl)-4-methoxy-1-(thiazol-5-ylmethyl)-1H-benzo[d]imidazole-6-carboxylic acid] | 100 to 1000 nM | > 85% | 
3 | N#Cc1ccc(COc2cccc(C3CCN(Cc4nc5c(OC(F)F)cc(C(=O)O)cc5n4C[C@@H]4CCS4(=O)=O)CC3)n2)c(F)c1 [Compound 110, (S)-2-((4-(6-((4-Cyano-2-fluorobenzyl)oxy)pyridin-2-yl)piperidin-1-yl)methyl)-4-(difluoromethoxy)-1-((1,1-dioxidothietan-2-yl)methyl)-1H-benzo[d]imidazole-6-carboxylic acid] | < 10 nM | > 85% | 
4 | CC(C)(C)Oc1cc(C(=O)O)cc2c1nc(CN1CCC(c3cccc(OCc4ccc(C#N)cc4F)n3)CC1)n2C[C@@H]1CCO1 [Compound 109, (S)-4-(tert-Butoxy)-2-((4-(6-((4-cyano-2-fluorobenzyl)oxy)pyridin-2-yl)piperidin-1-yl)methyl)-1-(oxetan-2-ylmethyl)-1H-benzo[d]imidazole-6-carboxylic acid] | < 10 nM | > 85% | 
5 | Cn1c(CN2CCC(Oc3cccc(Cc4ccc(C#N)cc4F)n3)CC2)nc2c(OC(F)F)cc(C(=O)O)cc21 [Compound 157, 2-((4-((6-(4-Cyano-2-fluorobenzyl)pyridin-2-yl)oxy)piperidin-1-yl)methyl)-4-(difluoromethoxy)-1-methyl-1H-benzo[d]imidazole-6-carboxylic acid] | 100 to 1000 nM | > 85% | 
6 | Cn1c(CN2CCC(c3cccc(OCc4ccc(C5CCCO5)cc4F)n3)CC2)nc2c(OC(F)F)cc(C(=O)O)cc21 (stereo not drawn) [Compound 177, 4-(Difluoromethoxy)-2-((4-(6-((2-fluoro-4-(tetrahydrofuran-2-yl)benzyl)oxy)pyridin-2-yl)piperidin-1-yl)methyl)-1-methyl-1H-benzo[d]imidazole-6-carboxylic acid] | > 1000 nM | 50 to 85% | 
7 | Cn1c(CN2CCC(c3cccc(OCc4ccc(Cl)cc4F)n3)CC2)nc2c(OC3CC3)cc(C(=O)O)cc21 [Compound 215, 2-((4-(6-((4-Chloro-2-fluorobenzyl)oxy)pyridin-2-yl)piperidin-1-yl)methyl)-4-cyclopropoxy-1-methyl-1H-benzo[d]imidazole-6-carboxylic acid] | < 10 nM | > 85% | 
8 | C[C@]1(c2ccc(Cl)cn2)Oc2cccc(C3CCN(Cc4nc5c6c(c(C(=O)O)cc5n4C[C@@H]4CCO4)OCCO6)CC3)c2O1 [Compound 93, 2-((4-((S)-2-(5-Chloropyridin-2-yl)-2-methylbenzo[d][1,3]dioxol-4-yl)piperidin-1-yl)methyl)-3-(((S)-oxetan-2-yl)methyl)-7,8-dihydro-3H-[1,4]dioxino[2′,3′:3,4]benzo[1,2-d]imidazole-5-carboxylic acid] | < 10 nM | > 85% | 
9 | COCCOc1cc(C(=O)O)cc2[nH]c(CN3CCC(c4cccc5c4O[C@@](C)(c4ccc(Cl)cn4)O5)CC3)nc12 [Compound 74, (S)-2-((4-(2-(5-Chloropyridin-2-yl)-2-methylbenzo[d][1,3]dioxol-4-yl)piperidin-1-yl)methyl)-4-(2-methoxyethoxy)-1H-benzo[d]imidazole-6-carboxylic acid] | 10 to 100 nM | > 85% | 
10 | N#Cc1ccc(COc2cccc(C3CCN(Cc4nc5ccc(C(=O)O)c(O)c5n4C[C@@H]4CCO4)CC3)n2)c(F)c1 [Compound 172, (S)-2-((4-(6-((4-cyano-2-fluorobenzyl)oxy)pyridin-2-yl)piperidin-1-yl)methyl)-7-hydroxy-1-(oxetan-2-ylmethyl)-1H-benzo[d]imidazole-6-carboxylic acid] |  |  | + (Emax is <25%)
11 | COc1cc(C(=O)O)cc2c1nc(N(C)[C@H]1CC[C@@H](c3cccc4c3O[C@@](C)(c3ccc(Cl)cn3)O4)CC1)n2C[C@@H]1CCO1 [Compound 79, 2-(((1R,4R)-4-((S)-2-(5-chloropyridin-2-yl)-2-methylbenzo[d][1,3]dioxol-4-yl)cyclohexyl)(methyl)amino)-4-methoxy-1-(((S)-oxetan-2-yl)methyl)-1H-benzo[d]imidazole-6-carboxylic acid] | 100 to 1000 nM | > 85% | 

Continued, values first:

Row | EC50 | Emax [1] | GLP-1R Low Expression Cell Assay Emax (%) [1] | SMILES
12 | > 1000 nM | > 85% |  | Cn1c(Cc2ccc(Oc3cccc(COc4ccc(Cl)cc4F)n3)cc2F)nc2c(OC(F)F)cc(C(=O)O)cc21 [Compound 367, 2-(4-((6-((4-Chloro-2-fluorophenoxy)methyl)pyridin-2-yl)oxy)-2-fluorobenzyl)-4-(difluoromethoxy)-1-methyl-1H-benzo[d]imidazole-6-carboxylic acid]
13 | > 1000 nM | < 25% |  | Cn1c(CN2CCC(c3cccc4c3OC[C@H](c3ccc(C#N)cc3F)O4)CC2)nc2c(OC(F)F)cc(C(=O)O)cc21 [Compound 326, (S)-2-((4-(2-(4-Cyano-2-fluorophenyl)-2,3-dihydrobenzo[b][1,4]dioxin-5-yl)piperidin-1-yl)methyl)-4-(difluoromethoxy)-1-methyl-1H-benzo[d]imidazole-6-carboxylic acid]
14 | < 10 nM | > 85% |  | [2H]C([2H])(C)Oc1cc(C(=O)O)cc2c1nc(CN1CCC(c3cccc(OC([2H])([2H])c4ccc(C#N)cc4F)n3)CC1)n2C [Compound 285, 2-((4-(6-((4-Cyano-2-fluorophenyl)methoxy-d2)pyridin-2-yl)piperidin-1-yl)methyl)-4-(ethoxy-1,1-d2)-1-methyl-1H-benzo[d]imidazole-6-carboxylic acid]
15 | 10 to 100 nM | > 85% |  | [2H]C([2H])(Oc1cccc(C2CCN(C([2H])([2H])c3nc4c(OC(F)F)cc(C(=O)O)cc4n3C)CC2)n1)c1ccc(Cl)cc1F [Compound 321, 2-((4-(6-((4-Chloro-2-fluorophenyl)methoxy-d2)pyridin-2-yl)piperidin-1-yl)methyl-d2)-4-(difluoromethoxy)-1-methyl-1H-benzo[d]imidazole-6-carboxylic acid]
16 | 10 to 100 nM | > 85% |  | CCOc1cc(C(=O)O)cc2c1nc(CN1CCC(c3cccc4c3OC[C@@H](c3ccc(C#N)cc3F)O4)CC1)n2C [Compound 276, (R)-2-((4-(2-(4-Cyano-2-fluorophenyl)-2,3-dihydrobenzo[b][1,4]dioxin-5-yl)piperidin-1-yl)methyl)-4-ethoxy-1-methyl-1H-benzo[d]imidazole-6-carboxylic acid]
17 | < 10 nM | > 85% |  | COc1cc(C(=O)O)cc2c1nc(CN1CCC(c3cccc(OCc4cc(F)c(Cl)cc4F)n3)CC1)n2C [Compound 272, 2-((4-(6-((4-Chloro-2,5-difluorobenzyl)oxy)pyridin-2-yl)piperidin-1-yl)methyl)-4-methoxy-1-methyl-1H-benzo[d]imidazole-6-carboxylic acid]
18 | < 10 nM | > 85% |  | COc1cc(C(=O)O)cc2c1nc(Cc1cc(F)c(-c3cccc(OCc4ccc(Cl)cc4F)n3)cc1F)n2C [Compound 282, 2-(4-(6-((4-Chloro-2-fluorobenzyl)oxy)pyridin-2-yl)-2,5-difluorobenzyl)-4-methoxy-1-methyl-1H-benzo[d]imidazole-6-carboxylic acid]
19 | 10 to 100 nM | > 85% |  | O=C(O)c1cc(OCF)c2nc(CN3CCC(c4cccc(OCc5ccc(Cl)cc5F)n4)CC3)n(CF)c2c1 [Compound 346, 2-((4-(6-((4-Chloro-2-fluorobenzyl)oxy)pyridin-2-yl)piperidin-1-yl)methyl)-4-(fluoromethoxy)-1-(fluoromethyl)-1H-benzo[d]imidazole-6-carboxylic acid]
20 | > 1000 nM | 50 to 85% |  | Cn1c(CN2CCC(c3cccc(OCc4ccc(Cl)cc4F)c3)CC2)nc2c(OC(F)F)cc(N3CC(=O)NS3(=O)=O)cc21 [Compound 281, 5-(2-((4-(3-((4-Chloro-2-fluorobenzyl)oxy)phenyl)piperidin-1-yl)methyl)-4-(difluoromethoxy)-1-methyl-1H-benzo[d]imidazol-6-yl)-1,2,5-thiadiazolidin-3-one 1,1-dioxide]
21 | < 10 nM | > 85% |  | [2H]C([2H])([2H])N(c1nc2c(OC(F)F)cc(C(=O)O)cc2n1C)[C@H]1CC[C@H](c2cccc(OCc3ccc(Cl)cc3F)n2)CC1 [Compound 372, 2-(((1r,4r)-4-(6-((4-Chloro-2-fluorobenzyl)oxy)pyridin-2-yl)cyclohexyl)(methyl-d3)amino)-4-(difluoromethoxy)-1-methyl-1H-benzo[d]imidazole-6-carboxylic acid]
22 | 100 to 1000 nM | > 85% |  | CCOc1cc(CC(=O)O)cc2c1nc(CN1CCC(c3cccc(OCc4ccc(C#N)cc4F)n3)CC1)n2C [Compound 259, 2-(2-((4-(6-((4-Cyano-2-fluorobenzyl)oxy)pyridin-2-yl)piperidin-1-yl)methyl)-4-ethoxy-1-methyl-1H-benzo[d]imidazol-6-yl) acetic acid]
23 | 100 to 1000 nM | > 85% |  | COc1cc(C(=O)O)c(F)c2c1nc(CN1CCC(c3ccc(F)c(OCc4ccc(C#N)cc4F)c3)CC1)n2C [Compound 339, 2-((4-(3-((4-Cyano-2-fluorobenzyl)oxy)-4-fluorophenyl)piperidin-1-yl)methyl)-7-fluoro-4-methoxy-1-methyl-1H-benzo[d]imidazole-6-carboxylic acid]
